One may read the IC50 as the concentration that gives 50% inhibition. Low readings indicate higher potency, high ones lower potency.

The record followed here is patent US20050245571A1, “Amine derivative” (priority 2001, published 2005).

In one assay the target is T1, human SSTR3 (Homo sapiens, UniProt P32745).
T1 construct: expressed in transfected cells; host or cells: CHO (dhfr-) cells, strain SSTR3-15-19, plasmid pA1-11-SSTR3 (pAKKO-111 vector)
The assay can be described thus: Binding inhibition of 125I-somatostatin-14, SSTR3 membrane fraction. To be noted: 125I-somatostatin-14 binding, CHO membrane fraction, 25° C. 60 minutes, Hill plots.

A further assay concerns the target T2, human SSTR5 (Homo sapiens, UniProt P35346).
T2 construct: expressed in transfected cells; host or cells: CHO (dhfr-) cells, strain SSTR5-32-4, plasmid pA1-11-SSTR5 (pAKKO-111 vector)
The assay is described as follows: Binding inhibition of 125I-somatostatin-14, SSTR5 membrane fraction. To be noted: 125I-somatostatin-14 binding, CHO membrane fraction, 25° C. 60 minutes, Hill plots.

The next assay deals with T3, human SSTR2 (Homo sapiens, UniProt P30874).
T3 construct: expressed in transfected cells; host or cells: CHO (dhfr-) cells, strain SSTR2-HS5-9, plasmid pAC01 (pAKKO-111 vector)
The assay can be described thus: Binding inhibition of 125I-somatostatin-14, SSTR2 membrane fraction. The conditions noted are these: 125I-somatostatin-14 binding, CHO membrane fraction, 25° C. 60 minutes, Hill plots. Here is the method: (4) Cloning of Human Somatostatin Receptor Protein Subtype 2 (SSTR2) DNA
pAKKO-111 mentioned under the above (2) was used as the expression vector in CHO (Chinese Hamster Ovary) cells. 5 μg of the plasmid having human SSTR2 cDNA fragment obtained under the above (4) was digested with the restriction enzyme Sal I and subjected to electrophoresis on 1% agarose gel to recover the 1.1 kb DNA fragment encoding human SSTR2. Next, 1 μg of the above-mentioned expression vector pAKKO-111 (5.5 kb) was digested with Sal I to prepare the cloning site for insertion of human SSTR2 DNA fragment. Said expression vector fragment and the 1.1 kb DNA fragment were ligated with T4 DNA ligase. The reaction mixture was introduced into E. coli JM109 by the calcium chloride method to obtain the expression plasmid pAC01 in which human SSTR2 DNA fragment was inserted in regular direction against the promoter from the transformants. This transformant is expressed as Escherichia coli JM109/pAC-01.
1×10^6 CHO (dhfr^−) cells were cultured for 24 hours in HAM F12 medium containing 10% bovine fetal serum on a laboratory dish of 8 cm in diameter. To the cells was transfected 10 μg of the human SSTR2 cDNA expression plasmid, pA-C01, obtained under the above (5) by the calcium phosphate method (Cell Phect Transfection Kit: Pharmacia). The medium was switched to DMEM medium containing 10% dialyzed bovine fetal serum 24 hours after the transfection to select the colony-forming cells (i.e. DHFR^+ cells) in this medium. Further, the selected cells were cloned from a single cell by the limiting dilution method and a cell strain which highly expresses human SSTR2, SSTR2-HS5-9, was selected.
The receptor binding inhibition rate (%) of the subject compound was calculated using each of the membrane fractions prepared in Experimental Examples 1 and 2.
The membrane fraction was diluted with a buffer solution for assay to adjust the concentration to 3 μg/ml. The diluate was placed in tubes each in quantity of 173 μl. To this were simultaneously added 2 μl of a solution of a subject compound in DMSO and 25 μl of a […] radioisotope-labeled somatostatin-14 (^125I-somatostatin-14: Amersham). For measurement of the maximum binding, a reaction mixture added with 2 μl of DMSO and 25 μl of a […] ^125I-somatostatin was prepared. For measurement of non-specific binding, a reaction mixture added with 2 μl of a 100 μM somatostatin solution in DMSO and 25 μl of a 200 pM ^125I-somatostatin solution was prepared at the same time. The mixtures were allowed to react at 25° C. for 60 minutes. Then, the reaction mixture was filtered by aspiration using a Whatman glass filter (GF-B) treated with polyethylenine. After filtration, the radioactivity of ^125I-somatostatin-14 remaining on the filter paper was measured by a γ-counter. The binding inhibition rate (%) of each subject compound was calculated by the following formula: (TB-SB)/(TB-NSB)×100 • SB: radioactivity when a compound was added • TB: maximum binding radioactivity • NSB: non-specific binding radioactivity
The binding inhibition rates were measured by changing the concentrations of the subject compound, and the 50% inhibiting concentration of the subject compound (IC50 value) was calculated by the Hill plots. The results are shown in [Table 1].

Another assay has as its system glucagon secretion. The assay is described as follows: Glucagon Secretion Inhibitory Activity Test (Rat). Format: in vivo. To be noted: SD rats male fasted, 3 mg/kg oral, insulin 2 U/kg s.c. 120 minutes later, plasma glucagon 30 minutes after insulin. As for the experimental part: Glucagon Secretion Inhibitory Activity Test (Rat)
A 0.5% methylcellulose suspension containing the subject compound (3 mg/kg body weight) (compound administration group) or a 0.5% methylcellulose suspension (compound non-administration group) was orally administered to SD rats (male, 7 weeks of age) after fasting overnight, and 120 minutes later, insulin (2 U/kg body weight, Novo Nordisk) was subcutaneously administered. After 30 minutes from the insulin administration, the blood was,drawn from the vein of eyegrounds of the rats using capillary, and blood plasma was separated by centrifugation. The concentration of glucagon in the obtained blood plasma was measured by radioimmunoassay using a Daiichi glucagon kit (Daiichi Isotope). As a non-treated group, the concentration of glucagon in the blood plasma of rat of the compound non-administration group free of insulin administration was measured in the same manner as above. […]

T2 sequence (P35346 whole entry): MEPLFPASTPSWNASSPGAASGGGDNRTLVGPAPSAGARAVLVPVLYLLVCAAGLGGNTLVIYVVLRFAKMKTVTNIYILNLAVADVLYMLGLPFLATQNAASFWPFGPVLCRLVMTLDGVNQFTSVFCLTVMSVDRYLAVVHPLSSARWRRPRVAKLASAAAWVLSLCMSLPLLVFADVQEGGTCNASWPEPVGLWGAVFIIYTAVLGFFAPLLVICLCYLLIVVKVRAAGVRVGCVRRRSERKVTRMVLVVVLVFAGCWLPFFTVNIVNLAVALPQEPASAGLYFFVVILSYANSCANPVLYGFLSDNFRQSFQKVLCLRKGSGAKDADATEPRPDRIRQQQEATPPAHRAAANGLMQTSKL
T3 sequence (P30874 whole entry): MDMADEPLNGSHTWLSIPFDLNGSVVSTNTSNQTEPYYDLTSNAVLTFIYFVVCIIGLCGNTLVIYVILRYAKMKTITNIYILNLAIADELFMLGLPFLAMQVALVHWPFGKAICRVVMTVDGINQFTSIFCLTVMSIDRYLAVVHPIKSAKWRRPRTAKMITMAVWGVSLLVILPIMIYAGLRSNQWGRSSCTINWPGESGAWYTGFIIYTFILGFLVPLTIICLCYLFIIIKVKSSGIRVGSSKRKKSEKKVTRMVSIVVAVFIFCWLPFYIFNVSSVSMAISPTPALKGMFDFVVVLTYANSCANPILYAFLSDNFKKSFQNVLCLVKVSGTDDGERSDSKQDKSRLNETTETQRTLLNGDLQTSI
T1 sequence (P32745 whole entry): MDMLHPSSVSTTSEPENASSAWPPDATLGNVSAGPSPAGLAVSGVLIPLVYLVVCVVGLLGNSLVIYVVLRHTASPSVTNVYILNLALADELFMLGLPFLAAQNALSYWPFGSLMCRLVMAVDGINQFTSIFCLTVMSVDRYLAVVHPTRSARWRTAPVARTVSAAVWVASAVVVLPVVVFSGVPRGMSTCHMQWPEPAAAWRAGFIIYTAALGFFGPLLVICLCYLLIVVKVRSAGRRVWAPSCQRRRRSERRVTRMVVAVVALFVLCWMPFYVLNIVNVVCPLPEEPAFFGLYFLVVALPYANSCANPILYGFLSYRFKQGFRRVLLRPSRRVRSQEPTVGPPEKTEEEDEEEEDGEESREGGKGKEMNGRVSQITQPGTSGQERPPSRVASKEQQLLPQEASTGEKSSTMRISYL

Regarding `C[C@@H](c1c[nH]c2ccccc12)[C@@H](NC(=O)C1CCN(C(=O)c2cc3ccccc3n2C)CC1)C(=O)N1C[C@@H](CN(C)C)Cc2cc(Cl)ccc21` [Example 6, N-[(1R,2S)-1-[((3R)-6-chloro-3-[(dimethylamino)methyl]-3,4-dihydro-1(2H)-quinolinyl)carbonyl]-2-(1H-indol-3-yl)propyl]-1-[(1-methyl-1H-indol-2-yl)carbonyl]-4-piperidinecarboxamide], the figures for the IC50 on human SSTR3, on human SSTR5 and at human SSTR2 were 30 nM, 60 nM and 0.2 nM, respectively. Further, in the assay with glucagon secretion, the “glucagon secretion (% of control)” value was 15.6 % of control.

Turning to `CC(c1c[nH]c2ccccc12)C(NC(=O)N1CCC(Oc2ccc(O)cc2)CC1)C(=O)N1C[C@@H](CN(C)C)Cc2cc(Cl)ccc21` (single isomer, unassigned; (-)) [Example 141], the IC50 on human SSTR3 turned out to be 3 nM; at human SSTR5, 10 nM; at human SSTR2 it was 0.05 nM.

In the case of `C[C@@H](c1c[nH]c2ccccc12)[C@@H](NC(=O)N1CCC(Oc2ccc(F)cc2)CC1)C(=O)N1C[C@@H](CN(C)C)Cc2cc(Cl)ccc21` [Example 153, N-[(1R,2S)-1-[[(3R)-6-chloro-3-[(dimethylamino)methyl]-3,4-dihydro-1(2H)-quinolinyl]carbonyl]-2-(1H-indol-3-yl)propyl]-4-(4-fluorophenoxy)-1-piperidinecarboxamide], the IC50 at human SSTR3 came out at 10 nM; at human SSTR5, 40 nM; on human SSTR2 it was 0.1 nM.

As for `C[C@@H](c1c[nH]c2ccccc12)[C@@H](NC(=O)N1CCN(C(=O)c2ccccc2)CC1)C(=O)N1C[C@@H](CN(C)C)Cc2cc(Cl)ccc21` [Example 157, 4-benzoyl-N-[(1R,2S)-1-[[(3R)-6-chloro-3-[(dimethylamino)methyl]-3,4-dihydro-1(2H)-quinolinyl]carbonyl]-2-(1H-indol-3-yl)propyl]-1-piperazinecarboxamide], the half-inhibitory concentration (IC50) was determined as 1 nM at human SSTR3, 5 nM on human SSTR5 and 0.05 nM on human SSTR2.

For `C[C@@H](c1c[nH]c2ccccc12)[C@@H](NC(=O)N1CCC(Oc2ccccc2)CC1)C(=O)N1C[C@@H](CN(C)C)Cc2cc(Cl)ccc21` [Example 42, N-[(1R,2S)-1-[((3R)-6-chloro-3-[(dimethylamino)methyl]-3,4-dihydro-1(2H)-quinolinyl)carbonyl]-2-(1H-indol-3-yl)propyl]-4-phenoxy-1-piperidinecarboxamide], the results for the IC50 on human SSTR3, on human SSTR5 and at human SSTR2 were 6 nM, 40 nM and 0.1 nM, respectively. The “glucagon secretion (% of control)” value in the assay with glucagon secretion is 3.0 % of control.
